Data: patent US20230130066A1, “USE OF CYCLODEXTRINS IN DISEASES AND DISORDERS INVOLVING PHOSPHOLIPID DYSREGULATION” (priority 2017, published 2023)
Several values for one entry are separate records, joined by “and”; a condition that tells them apart may be missing. Equal entries are not always repeated. Where two headings read alike, the source gives them in different places.

Key:
[1] = in vivo; cited from earlier work
[2] = rats, suppositories containing triglycerides (Witepsol H5); cited from earlier work
[3] = Table 3; cited from earlier work
[4] = test system: leukemia; conditions: leukemia mouse models; cited from earlier work
[5] = test system: membrane cholesterol; conditions: SwN2a cells; cited from earlier work
[6] = test system: a-syn aggregates; conditions: neuroglioma cells, via autophagy; cited from earlier work
[7] = test system: MDA-MB-231 cells; assay: Wound healing / gap closure migration assay, MDA-MB-231; format: cell-based, human; conditions: 2 h treatment; for wound closure, replications r1-r3: listed as HPbCD
Experimental: Published results have shown that β-CD inhibits human MDA-MB 231 cell migration. See Translational Medicine Communications, 1 (1), 3. This inhibition was attributed to the ability of β-CD to “deplete cholesterol”. β-CD, however, depletes also phospholipids.
(§1) Cells were cultured in 24-well culture plates (Cytoselect CBA-120, 0.9 mm wound healing/gap closure migration assay) for 24 h with wound healing insert in place.
(§2) Protocol: Warm up the 24-well plate (CBA-120, Cell BioLabs Inc.) with 0.9 mm CytoSelect Wound Healing Inserts at room temperature for 10 minutes. Using sterile forceps, orient the desired number of inserts in the plate wells with their “wound field” aligned in the same direction. Create a cell suspension containing 0.5-1.0×10^6 cells/ml in media containing 10% fetal bovine serum (FBS). Add 500 μL of cell suspension to each well by carefully inserting the pipette tip through the open end at the top of the insert. For optimal cell dispersion, add 250 μL of cell suspension to either side of the open ends at the top of the insert. Incubate cells in a cell culture incubator for 12-24 hours. Carefully remove the insert from the well to begin the wound healing assay. Use sterile forceps to grab and lift the insert slowly from the plate well. Slowly aspirate and discard the media from the wells. Wash wells with media to remove dead cells and debris. Finally, add media to wells to keep cells hydrated. Repeat wash if wells still have debris or unattached cells. When washing is complete, add media with FBS and/or compounds to continue cell culture and wound healing process. Agents that inhibit or stimulate cell migration can be added directly to the wells. Incubate cells in a cell culture incubator (2 hours) and then wash cells with PBS and then add fresh media without compounds. Incubate 12-24 hours before wash and fixing. Remove the fixation solution and add 400 μL of Cell Stain Solution to each well. Allow the stain to incubate with the cells for 15 minutes at room temperature. Aspirate and discard the solution. Carefully wash each stained well 3× with deionized water. Discard washes and allow cells to dry at room temperature. Cells that migrated into the wounded area or protruded from the border of the wound were visualized and photographed under an inverted microscope. Determine the surface area of the defined wound area: Total Surface Area=0.9 mm x length. Determine the surface area of the migrated cells into the wound area: Migrated Cell Surface Area=length of cell migration (mm)×2×length. Percent Closure (%)=Migrated Cell Surface Area/Total Surface Area x 100.

[8] = cited from earlier work
[9] = test system: Aβ42; conditions: SwN2a cells; persistent for 24 h after withdrawal; cited from earlier work
[10] = test system: rats; conditions: cited from earlier work
[11] = test system: rats; conditions: cited from earlier work; remark: listed apart in the source
[12] = test system: BBB; conditions: cited from earlier work
[13] = test system: LINCL fibroblasts; conditions: dose- and time-dependent; cited from earlier work
[14] = cited from earlier work; remark: listed apart in the source
[15] = test system: MCF-7 cells; assay: Wound healing / gap closure migration assay, MCF-7; format: cell-based, human; conditions: 2 h treatment; for wound closure, replications r1-r3: listed as HPbCD
Experimental: as §1, §2

[16] = test system: BBB; conditions: cited from earlier work; for Transport across BBB: 2 h, 1 mM
[17] = mice, cats, and one human; cited from earlier work
[18] = test system: human keratinocytes; conditions: cited from earlier work
[19] = test system: Tg19959 mice; conditions: four months subcutaneous; cited from earlier work
[20] = test system: HeLa/TFEB cells; conditions: cited from earlier work
[21] = test system: Tg19959 mice; conditions: four months subcutaneous; cited from earlier work; remark: listed apart in the source
[22] = test system: unesterified cholesterol (UC) storage; conditions: 3-week-old Npc1-/- mice, dorsal neocortex, filipin; cited from earlier work
[23] = test system: cats; conditions: doses of 4-8 g/kg; cited from earlier work
[24] = cited from earlier work; remark: listed apart in the source
[25] = test system: Caco-2 monolayers; conditions: cited from earlier work; for equally effective concentration on paracellular permeability: after 40 min
[26] = mice with spinobulbar muscular atrophy (SBMA); cited from earlier work
[27] = test system: Aβ1-40/42; conditions: rats, stereotactical injection into the hippocampus; cited from earlier work
[28] = test system: transferrin endocytosis; conditions: 10 mM; cited from earlier work
[29] = test system: rats; conditions: […] daily; cited from earlier work
[30] = test system: NPC cells; conditions: cited from earlier work
[31] = test system: erythrocytes; conditions: cited from earlier work
[32] = test system: Caco-2 cells; conditions: cited from earlier work

2-hydroxypropyl-β-cyclodextrin [HP-β-CD]
half-life (t1/2) [1]: 1.7 to 1.9 h
vol. of distribution (VD) [1]: 0.2 L/kg
absorption, administered rectally [2]: 26%
Solubility in water [3]: >600 mg/mL
survival [4]: prolonged survival
level of membrane cholesterol [5]: reduced
a-syn aggregates [6]: promoted clearance
average wound closure (avg) ([7]; MDA-MB-231, 1 mM): 67.67%
wound closure, replications r1-r3 ([7]; MDA-MB-231, 1 mM): 62.00% and 68.00% and 73.00%
average wound closure (avg) ([7]; MDA-MB-231, 2 mM): 56.00%
wound closure, replications r1-r3 ([7]; MDA-MB-231, 2 mM): 48.00% and 59.00% and 61.00%
average wound closure (avg) ([7]; MDA-MB-231, 4 mM): 39.00%
wound closure, replications r1-r3 ([7]; MDA-MB-231, 4 mM): 48.00% and 44.00% and 25.00%
tolerability ([8]; children with NPC, doses of up to 1000 mg/kg/d): well tolerated
side effects ([8]; two children with NPC, about 2500 mg/kg bi-weekly (≈700 mg/kg/d), over a year): no discernable side effects
levels of Aβ42 [9]: dramatically lowered
effect of 1 g/kg in rats [10]: did not cause adverse clinical signs
acute i.v. toxicity in rats [11]: 10 g/kg
BBB breakdown [12]: 2.5 mM
toxicity on BBB in vitro [12]: similar
ceroid lipopigment [13]: clearance of ceroid lipopigment
bone mineral density (BMD) ([14]; long-term parenteral administration, 200 mg/kg): decrease bone mineral density
average wound closure (avg) ([15]; MCF-7, 1 mM): 73.33%
wound closure, replications r1-r3 ([15]; MCF-7, 1 mM): 68.00% and 74.00% and 78.00%
average wound closure (avg) ([15]; MCF-7, 2 mM): 48.33%
wound closure, replications r1-r3 ([15]; MCF-7, 2 mM): 41.00% and 48.00% and 56.00%
average wound closure (avg) ([15]; MCF-7, 4 mM): 33.67%
wound closure, replications r1-r3 ([15]; MCF-7, 4 mM): 32.00% and 28.00% and 41.00%
Transport across BBB [16]: 9.3%
ototoxicity [17]: risk of causing permanent hearing loss
apoptotic cell death ([18]; human keratinocytes): not apoptotic
spatial learning and memory deficits [19]: significantly improved
expression of LC3, SQSTM1/p62 and BECN1 [20]: up-regulated
Aβ plaque deposition [21]: diminished
tau immunoreactive dystrophic neurites (DN) [21]: reduced
UC storage in brain cells [22]: highly effective reduction
ototoxicity [23]: permanent hearing loss
oral absorption in rats [24]: ≤3%

CCCCCCCCCC(=O)O [C10, Capric acid]
equally effective concentration on paracellular permeability [25]: 13 mM

CCCCCCCCCCCC(=O)O [C12, lauric acid]
tight junction morphology ([25]; Caco-2 monolayers): did not induce detectable changes
equally effective concentration on paracellular permeability [25]: 0.75 mM

CN1CCCC1c1cccnc1 (stereo not drawn) [nicotine]
transported through the BBB ([16]; in vitro, after 2 h of incubation): 96%

C[C@@]12C[C@@]3(O)O[C@@H](O1)[C@]1(COC(=O)c4ccccc4)[C@H]3C[C@@]12O[C@@H]1O[C@H](CO)[C@@H](O)[C@H](O)[C@H]1O [paeoniflorin]
disease phenotype [26]: mitigates the disease phenotype

OC[C@H]1O[C@@H]2O[C@H]3[C@H](O)[C@@H](O)[C@@H](O[C@H]4[C@H](O)[C@@H](O)[C@@H](O[C@H]5[C@H](O)[C@@H](O)[C@@H](O[C@H]6[C@H](O)[C@@H](O)[C@@H](O[C@H]7[C@H](O)[C@@H](O)[C@@H](O[C@H]8[C@H](O)[C@@H](O)[C@@H](O[C@H]1[C@H](O)[C@H]2O)O[C@@H]8CO)O[C@@H]7CO)O[C@@H]6CO)O[C@@H]5CO)O[C@@H]4CO)O[C@@H]3CO [β-CD, beta-cyclodextrin]
Toxicity of Aβ1-40/42 [27]: reduced
reduction of transferrin endocytosis [28]: 80%
deaths, daily doses s.c. [29]: no deaths
acute i.v. toxicity in rats [11]: 1 g/kg
cholesterol accumulation [30]: can reduce cholesterol accumulation
BBB breakdown [12]: 2.5 mM
toxicity on BBB in vitro [12]: similar
Transport across BBB [16]: 26.7%
apoptotic cell death [18]: induces caspase-dependent apoptotic cell death
cholesterol released ([31]; 10 mM): 95%
extraction of cholesterol ([31]; erythrocytes): most effectively

OC[C@H]1O[C@@H]2O[C@H]3[C@H](O)[C@@H](O)[C@@H](O[C@H]4[C@H](O)[C@@H](O)[C@@H](O[C@H]5[C@H](O)[C@@H](O)[C@@H](O[C@H]6[C@H](O)[C@@H](O)[C@@H](O[C@H]7[C@H](O)[C@@H](O)[C@@H](O[C@H]8[C@H](O)[C@@H](O)[C@@H](O[C@H]9[C@H](O)[C@@H](O)[C@@H](O[C@H]1[C@H](O)[C@H]2O)O[C@@H]9CO)O[C@@H]8CO)O[C@@H]7CO)O[C@@H]6CO)O[C@@H]5CO)O[C@@H]4CO)O[C@@H]3CO [γ-CD, gamma-cyclodextrin]
cholesterol accumulation [30]: can reduce cholesterol accumulation

alendronate-β-CD [ALN-β-CD]
effect on bone ([14]; rat, in vivo): bone-anabolic

maltosyl-α-CD
cytotoxicity [32]: less cytotoxic than α-CD
